Test results published in patent US9382295B2, “Cyclic depsipeptide compounds and their uses” (Cypralis Limited, priority 2012, dated 2016).
≈ marks a conversion by molar mass, not a printed value. Read-outs that look alike come from different tables or passages of the source. Numbered stars: 1 amine (or outer) side, 2 acyl side, 3 side chain; on linkers, the order of the positions; unused ones are H or OH. Square brackets hold non-standard residues; d marks the D form. Peptide text beside a SMILES is read from it. X26 = C[C@H](C/C=C/c1cccc(N2CCOCC2)n1)[C@@H](O)[C@H](C(=O)[*:2])N(C)[*:1]; X10 = Cc1cccc(/C=C/C[C@@H](C)[C@@H](O)[C@H](C(=O)[*:2])N(C)[*:1])n1; X21 = C[C@H](CCN(C)C1CCOCC1)[C@@H](O)[C@H](C(=O)[*:2])N(C)[*:1]; X23 = COC1CN(CC[C@@H](C)[C@@H](O)[C@H](C(=O)[*:2])N(C)[*:1])C1; X14 = C[C@H](CCCc1ncccn1)[C@@H](O)[C@H](C(=O)[*:2])N(C)[*:1]; X31 = COCCN(C)CC[C@@H](C)[C@@H](O)[C@H](C(=O)[*:2])N(C)[*:1]; X16 = C[C@H](CCN1CCOCC1)[C@@H](O)[C@H](C(=O)[*:2])N(C)[*:1]; d(aThr) = C[C@@H](O)[C@@H](N)C(=O)O; NMeL = CN[C@@H](CC(C)C)C(=O)O; dNMeL = CN[C@H](CC(C)C)C(=O)O; dNMeV = CN[C@@H](C(=O)O)C(C)C; Hiv = CC(C)[C@H](O)C(=O)O; dAbu = CC[C@@H](N)C(=O)O; Sar = CNCC(=O)O

Tests used:
cyclophilin A (Cyp A) = target: T1, cyclophilin A (Cyp A) (Homo sapiens, UniProt P62937); assay: Protease-free PPIase assay, cyclophilin A; type: biochemical
T1 construct: purchased Sigma C3805
T1 sequence (P62937 whole entry): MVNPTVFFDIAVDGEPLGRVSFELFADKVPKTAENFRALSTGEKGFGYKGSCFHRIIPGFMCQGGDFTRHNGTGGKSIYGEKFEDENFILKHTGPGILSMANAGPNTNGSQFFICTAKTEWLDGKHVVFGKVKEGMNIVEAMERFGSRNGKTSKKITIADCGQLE
Method: (§1) The protease-free PPIase assay measures the rate of cis to trans conversion of a peptide substrate catalyzed by the enzymes cyclophilin A and cyclophilin D. Addition of a cyclophilin inhibitor (e.g., a test compound) slows the catalyzed rate and a Ki value is obtained. […] 35 mM HEPES pH 7.8, filtered through a 0.2 μm filter. 50 μM DTT was added prior to use each day and then the buffer was stored on ice. Human recombinant cyclophilin A (Cyp A) (Sigma C3805) enzyme was diluted to 1 μM with enzyme dilution buffer (20 mM HEPES pH 7.8, 40% glycerol, 50 μM DTT and 1 μM BSA) and stored at -20° C. Succinimide-[…]) (from Bachem AG, L-1400), 20 mg/ml prepared in 0.5 M LiCl in trifluoroethanol. All readings were taken with an Agilent 8453 Spectrophotometer which consists of a cuvette holder, stirrer and chiller to maintain a stirred cuvette temperature of 10.0±0.1° C. The temperature is monitored by the use of temperature probe. […] The inhibitor was diluted in 100% DMSO, and then added to the assay to a maximum final concentration of 0.5% DMSO in the assay. A blank spectrum was obtained, then 3 μL of enzyme was added (2 nM final concentration) and then 3 μL substrate (60 μM final concentration) added. The absorbance was measured at 330 nm for 300 s or 500 s for blank runs (NOTE: the substrate must be added in one quick injection and the measurements started immediately to minimize mixing errors). A first order rate equation was fitted to the absorbance data, for each concentration of inhibitor, to obtain the rate constant (the first 10 to 15 seconds were excluded as mixing causes errors in this portion of curve). The catalytic rate was calculated from the enzymatic rate constant minus the background rate constant. An exponential curve was generated using the catalytic rate constants versus the inhibitor concentration to obtain the Ki value for the inhibitor. The Ki value is indicative of the binding affinity between the test compound and cyclophilin A or cyclophilin D.

cyclophilin D (Cyp D) = cyclophilin D (Cyp D) (Homo sapiens, UniProt P30405); assay: Protease-free PPIase assay, cyclophilin D; type: biochemical
Chain of cyclophilin D (Cyp D) (P30405 30-207): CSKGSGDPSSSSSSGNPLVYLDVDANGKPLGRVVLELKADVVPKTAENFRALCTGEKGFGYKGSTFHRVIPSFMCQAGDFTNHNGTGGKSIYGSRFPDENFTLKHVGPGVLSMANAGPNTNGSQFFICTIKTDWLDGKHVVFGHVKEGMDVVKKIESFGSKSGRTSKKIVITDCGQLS
Method: as §1, with “ice.” for “ice. Human recombinant cyclophilin A (Cyp A) (Sigma C3805) enzyme was diluted to 1 μM with enzyme dilution buffer (20 mM HEPES pH 7.8, 40% glycerol, 50 μM DTT and 1 μM BSA) and stored at -20° C.”

[1] = Water solubility assay (pH 7.8 buffer); type: physicochemical
Method: ***Water Solubility Assay (Measured in pH 7.8 Buffer)
The onset of precipitation, if it occurred, was detected by an increase in absorbance at 650 nm.
Assay Buffer: 35 mM HEPES pH 7.8
Stock solutions of Control and Test Compounds: 10 mM in 100% DMSO
10 mM stock solutions of control and test compounds were prepared in 100% DMSO. A series of dilutions were prepared from the stock in DMSO so that the final concentrations in the assay were 0, 3.33, 10, 25, 50, 75 and 100 μM and DMSO was limited to 1%.
Assay buffer (247.5 μl) was placed into flat bottomed transparent 96-well plate. For blank samples DMSO (2.5 μl) was added. For test and control samples 2.5 μl of the appropriate DMSO dilution stocks were added to the appropriate well. All test and control compounds were performed in triplicate.
The plates were sealed with adhesive plate seal and shaken at 250 rpm at 25° C. for 18 h on a plate shaker.
After incubation the plate seals were taken off and any bubbles observed in wells removed. The plates were read on a SpectraMaxM5 with a 5 s pre-shake at 650 nm.
Data files were transferred to the appropriate worksheet and the solubility range of the compounds was calculated from the data.
The values shown in the tables indicate the concentration in μM (micromolar) at which the compound remains in solution.

| Structure (SMILES) | Ki (cyclophilin A (Cyp A)) | Ki (cyclophilin D (Cyp D)) | solubility at 18 h ([1]; pH 7.8) | Ki (cyclophilin A (Cyp A); protease-free PPIase assay, class symbols, read-out: CypA Ki) | Ki (cyclophilin D (Cyp D); protease-free PPIase assay, class symbols, read-out: CypD Ki) | solubility at 18 h ([1]; 35 mM HEPES buffer, 35 mM HEPES pH 7.8, 1% DMSO, 25° C., 18 h, concentration at which compound remains in solution, read-out: Solubility) |
| --- | --- | --- | --- | --- | --- | --- |
| COCCN(C)CC[C@@H](C)[C@@H](O)[C@@H]1C(=O)N[C@H]([C@@H](C)O)C(=O)N(C)CC(=O)N(C)[C@@H](CC(C)C)C(=O)N[C@H](CC(C)C)C(=O)N(C)[C@H](CC(C)C)C(=O)N[C@H](C)C(=O)O[C@@H](C(C)C)C(=O)N(C)[C@H](CC(C)C)C(=O)N[C@H](CC(C)C)C(=O)N(C)[C@H](C(C)C)C(=O)N1C [Example 10, cyclo-{(3R,4R,5S)-4-(hydroxy)-3-methyl-5-(methylamino)-1-N-[(2-methoxy-ethyl)-methyl-amino]-hexanoic acid-Thr-Sar-MeLeu-Leu-MeLeu-Ala-D-Hiv-MeLeu-Leu-MeVal}] (cyclo([Hiv][dNMeL][dL][dNMeV][X31][d(aThr)][Sar][NMeL][dL][dNMeL][dA])) | 25 to 100 nM | 1 to 25 nM | > 100 µM |  |  |  |
| CC(C)C[C@@H]1C(=O)N[C@H](CC(C)C)C(=O)N(C)[C@H](C(C)C)C(=O)N(C)[C@H]([C@H](O)[C@H](C)CCN(C)C2CCOCC2)C(=O)N[C@H]([C@@H](C)O)C(=O)N(C)CC(=O)N(C)[C@@H](CC(C)C)C(=O)N[C@H](CC(C)C)C(=O)N(C)[C@H](CC(C)C)C(=O)N[C@H](C)C(=O)O[C@@H](C(C)C)C(=O)N1C [Example 12, cyclo-{(3R,4R,5S)-4-(hydroxy)-3-methyl-5-(methylamino)-1-N-(methyl-(tetrahydro-pyran-4-yl)-amino)-hexanoic acid-Thr-Sar-MeLeu-Leu-MeLeu-Ala-D-Hiv-MeLeu-Leu-MeVal}] (cyclo([Hiv][dNMeL][dL][dNMeV][X21][d(aThr)][Sar][NMeL][dL][dNMeL][dA])) | 25 to 100 nM | 1 to 25 nM | > 100 µM |  |  |  |
| CC(C)C[C@@H]1C(=O)N[C@H](CC(C)C)C(=O)N(C)[C@H](C(C)C)C(=O)N(C)[C@H]([C@H](O)[C@H](C)C/C=C/c2cccc(N3CCOCC3)n2)C(=O)N[C@H]([C@@H](C)O)C(=O)N(C)CC(=O)N(C)[C@@H](CC(C)C)C(=O)N[C@H](CC(C)C)C(=O)N(C)[C@H](CC(C)C)C(=O)N[C@H](C)C(=O)O[C@@H](C(C)C)C(=O)N1C [Example 18, cyclo-{(3R,4R,5S)-4-(hydroxy)-3-methyl-5-(methylamino)-1-(6-morpholin-4-yl-pyridin-2-yl)-hept-1-enoic acid-Thr-Sar-MeLeu-Leu-MeLeu-Ala-D-Hiv-MeLeu-Leu-MeVal}] (cyclo([Hiv][dNMeL][dL][dNMeV][X26][d(aThr)][Sar][NMeL][dL][dNMeL][dA])) |  |  |  | 1 to 25 nM | 1 to 25 nM | 10 to 25 µM (≈ 14 to 34.9 µg/mL) |
| CC[C@H]1NC(=O)[C@@H]([C@H](O)[C@H](C)C/C=C/c2cccc(C)n2)N(C)C(=O)[C@@H](C(C)C)N(C)C(=O)[C@@H](CC(C)C)NC(=O)[C@@H](CC(C)C)N(C)C(=O)[C@H](C(C)C)OC(=O)[C@@H](C)NC(=O)[C@@H](CC(C)C)N(C)C(=O)[C@@H](CC(C)C)NC(=O)[C@H](CC(C)C)N(C)C(=O)CN(C)C1=O [Example 19, cyclo-[(3R,4R,5S)-4-(hydroxy)-3-methyl-5-(methylamino)-1-(6-methyl-pyridin-2-yl)-hept-1-enoic acid-Abu-Sar-MeLeu-Leu-MeLeu-Ala-D-Hiv-MeLeu-Leu-MeVal]] (cyclo([Hiv][dNMeL][dL][dNMeV][X10][dAbu][Sar][NMeL][dL][dNMeL][dA])) | 1 to 25 nM | 1 to 25 nM | 10 to 25 µM (≈ 13.1 to 32.7 µg/mL) |  |  |  |

Next, values leading:

| Ki (cyclophilin A (Cyp A)) | Ki (cyclophilin D (Cyp D)) | solubility at 18 h ([1]; pH 7.8) | Ki (cyclophilin A (Cyp A); protease-free PPIase assay, class symbols, read-out: CypA Ki) | Ki (cyclophilin D (Cyp D); protease-free PPIase assay, class symbols, read-out: CypD Ki) | solubility at 18 h ([1]; 35 mM HEPES buffer, 35 mM HEPES pH 7.8, 1% DMSO, 25° C., 18 h, concentration at which compound remains in solution, read-out: Solubility) | Structure (SMILES) |
| --- | --- | --- | --- | --- | --- | --- |
| 1 to 25 nM | 1 to 25 nM | > 100 µM |  |  |  | COC1CN(CC[C@@H](C)[C@@H](O)[C@@H]2C(=O)N[C@H]([C@@H](C)O)C(=O)N(C)CC(=O)N(C)[C@@H](CC(C)C)C(=O)N[C@H](CC(C)C)C(=O)N(C)[C@H](CC(C)C)C(=O)N[C@H](C)C(=O)O[C@@H](C(C)C)C(=O)N(C)[C@H](CC(C)C)C(=O)N[C@H](CC(C)C)C(=O)N(C)[C@H](C(C)C)C(=O)N2C)C1 [Example 11, cyclo-{(3R,4R,5S)-4-(hydroxy)-3-methyl-5-(methylamino)-1-N-(3-methoxy-azetidinyl)-hexanoic acid-Thr-Sar-MeLeu-Leu-MeLeu-Ala-D-Hiv-MeLeu-Leu-MeVal}] (cyclo([Hiv][dNMeL][dL][dNMeV][X23][d(aThr)][Sar][NMeL][dL][dNMeL][dA])) |
| 1 to 25 nM | 1 to 25 nM | 25 to 50 µM (≈ 32.3 to 64.5 µg/mL) |  |  |  | CC[C@H]1NC(=O)[C@@H]([C@H](O)[C@H](C)CCN2CCOCC2)N(C)C(=O)[C@@H](C(C)C)N(C)C(=O)[C@@H](CC(C)C)NC(=O)[C@@H](CC(C)C)N(C)C(=O)[C@H](C(C)C)OC(=O)[C@@H](C)NC(=O)[C@@H](CC(C)C)N(C)C(=O)[C@@H](CC(C)C)NC(=O)[C@H](CC(C)C)N(C)C(=O)CN(C)C1=O [Example 13, cyclo-[(3R,4R,5S)-4-(hydroxy)-3-methyl-5-(methylamino)-1-N-morpholino-hexanoic acid-Abu-Sar-MeLeu-Leu-MeLeu-Ala-D-Hiv-MeLeu-Leu-MeVal]] (cyclo([Hiv][dNMeL][dL][dNMeV][X16][dAbu][Sar][NMeL][dL][dNMeL][dA])) |
| 1 to 25 nM | 1 to 25 nM | 10 to 25 µM (≈ 13.2 to 33.1 µg/mL) |  |  |  | Cc1cccc(/C=C/C[C@@H](C)[C@@H](O)[C@@H]2C(=O)N[C@H]([C@@H](C)O)C(=O)N(C)CC(=O)N(C)[C@@H](CC(C)C)C(=O)N[C@H](CC(C)C)C(=O)N(C)[C@H](CC(C)C)C(=O)N[C@H](C)C(=O)O[C@@H](C(C)C)C(=O)N(C)[C@H](CC(C)C)C(=O)N[C@H](CC(C)C)C(=O)N(C)[C@H](C(C)C)C(=O)N2C)n1 [Example 14, cyclo-[(3R,4R,5S)-4-(hydroxy)-3-methyl-5-(methylamino)-1-(6-methyl-pyridin-2-yl)-hept-1-enoic acid-Thr-Sar-MeLeu-Leu-MeLeu-Ala-D-Hiv-MeLeu-Leu-MeVal]] (cyclo([Hiv][dNMeL][dL][dNMeV][X10][d(aThr)][Sar][NMeL][dL][dNMeL][dA])) |
| 1 to 25 nM | 1 to 25 nM | 25 to 50 µM (≈ 32.8 to 65.7 µg/mL) |  |  |  | CC(C)C[C@@H]1C(=O)N[C@H](CC(C)C)C(=O)N(C)[C@H](C(C)C)C(=O)N(C)[C@H]([C@H](O)[C@H](C)CCCc2ncccn2)C(=O)N[C@H]([C@@H](C)O)C(=O)N(C)CC(=O)N(C)[C@@H](CC(C)C)C(=O)N[C@H](CC(C)C)C(=O)N(C)[C@H](CC(C)C)C(=O)N[C@H](C)C(=O)O[C@@H](C(C)C)C(=O)N1C [Example 16, cyclo-[(3R,4R,5S)-4-(hydroxy)-3-methyl-5-(methylamino)-1-(pyrimidin-2-yl)-heptanoic acid-Thr-Sar-MeLeu-Leu-MeLeu-Ala-D-Hiv-MeLeu-Leu-MeVal]] (cyclo([Hiv][dNMeL][dL][dNMeV][X14][d(aThr)][Sar][NMeL][dL][dNMeL][dA])) |
